# Where two headings read alike, the source gives them in different places.
# Columns and labels:
# [1] = tested on: L. (V.) braziliensis axenic amastigotes; experiment: Antileishmanial activity on axenic amastigotes (MTT, 72 h); assay type: cell-based, Leishmania (Viannia) braziliensis
# Protocol: In vitro amastigogenesis was performed by transformation from promastigotes at the stationary phase of growth to obtention axenic amastigotes. This process involved altering the culture conditions to Schneider’s medium with a pH of 5.5, supplementing them with 5% FBS, and incubating them at a temperature of 32 °C [17].
# Assessment of antileishmanial activity against promastigote and amastigote axenic forms of parasites followed the method described by Rodrigues et al. and involved the following steps: L. (V.) braziliensis parasites were cultured in 96-well plates at a concentration of 1 × 10^6 parasites per well. Each well contained 100 μL of supplemented Schneider medium. Serial concentrations of the test substances, ranging from 50 to 1.56 μmol/L, were prepared. Reference drugs, meglumine antimoniate (20 to 40,000 μmol/L) and amphotericin B (0.031 to 2 μmol/L) were also prepared. These concentrations were used to assess the effects of the test substances in comparison to reference drugs. The plates were incubated in a BOD incubator at 26 °C for 72 h. After the 72 h incubation period, 10 μL of MTT (5 mg/mL) was added to each well. The plates were then incubated for an additional 4 h. At the end of the 4 h incubation, formazan crystals formed by the reduction of the MTT salt were solubilized by adding 50 μL of a 10% (w/v) sodium dodecyl sulfate (SDS) solution in distilled water. Absorbance was measured using a microplate reader at a wavelength of 540 nm (Biosystems ELx800 model, Curitiba, PR, Brazil). This measurement quantified the metabolic activity of the parasites, which is indicative of their viability and proliferation. Schneider medium containing 0.2% DMSO was used as a negative control in the tests.
# right atrium = experiment: Chronotropic effect on isolated right atrium; parameters: species or system guinea pig; details: for effect on heart rate (chronotropic): isolated guinea pig heart muscle preparation, up to 100 µmol/L
# Protocol: Guinea pigs of either sex weighing between 250 or 380 g were utilized in this study. The animals were housed in a controlled environment in an air-conditioned room, maintaining a temperature of 22 to 24 °C and a relative humidity of 50% to 60%. A 12 h light–dark cycle was maintained.
# On the day of the experiments, the animals were euthanized via cervical dislocation. The heart, aorta, pulmonary artery, and ileum were surgically removed and immersed in Krebs–Henseleit solution, with the following composition: NaCl 144.9 mM, KCl 4.73 mM, CaCl2 3.2 mM, MgSO4 1.18 mM, NaHCO3 24.9 mM, KH2PO4 1.18 mM, and glucose 10 mM, with the pH maintained at 7.2–7.4. This solution was continuously aerated with a mixture of 95% O2 and 5% CO2.
# Papillary muscles were isolated from the right ventricle of the heart and meticulously cleared of Purkinje fibers to prevent spontaneous activity. To ensure adequate oxygen supply, only muscles with a diameter less than 0.87 mm were used. The right atrium was also dissected for assessment of chronotropic activity. Both the aorta and pulmonary artery were cleaned and cut into 5 mm rings, while the ileum was sectioned into pieces measuring 1 to 2 cm.
# One end of the dissected tissues was securely tied with silver wire for attachment to a tissue holder, while the other end was connected to a force transducer (Transbridge™, 4-Channel Transducer Amplifier, World Precision Instruments, Sarasota, FL, USA). For contractile measurements, the terminal ileum was stimulated with 60 mM KCl, and the pulmonary artery and aorta rings were exposed to a 90 mM KCl solution. Papillary muscles were electrically stimulated using an Anapulse Stimulator Model 301-T and an Isolation Unit Model 305-1 (WPI, Hamden, CT, USA) with rectangular pulses of 3 ms duration at a frequency of 1 Hz. The amplitude of the stimulation pulse was maintained at 10% above the threshold level. To optimize contractility, a constant resting tension was applied throughout the experiment: 3.9 mN for papillary muscle, 4.9 mN for terminal ileum, 10.4 mN for the right atrium, and 19.6 mN for aorta and pulmonary artery rings.
# Following a 30 min control period, different concentrations of test compounds were cumulatively added to the bath solution every 45 min until a stable effect was achieved. The responses were recorded using a chart recorder (BD 112 Dual Channel, Kipp &Zonen, PO Box 507, 2624 BC, Delft, Holland) for subsequent evaluation. Stock concentrations of the test compounds were prepared using DMSO. To account for any potential DMSO effect, control experiments were conducted with the solvent alone, and the observed effects were subtracted from the responses elicited by the test compounds.
# nitric oxide (NO) = experiment: Nitric oxide synthesis induction (Griess) in infected macrophages; assay type: cell-based, murine; details: supernatant of RAW 264.7 macrophages infected with L. (V.) braziliensis
# Protocol: To evaluate the induction of nitric oxide (NO) synthesis, the following procedure was conducted: In 96-well plates, 100 μL of the supernatants obtained from the macrophage infection assays by L. (V.) braziliensis were placed. An equal volume of Griess® reagent (obtained from Sigma-Aldrich, St. Louis, MO, USA) was added to each well. In parallel, the same procedure was carried out using known concentrations of sodium nitrite (NaNO2, obtained from Vertec Química Fina, Duque de Caxias, RJ, Brazil) ranging from 125 to 2 μmol/L, which were prepared in RPMI medium. This was performedto generate a standard curve. The plates were then incubated at room temperature for 10 min. Subsequently, the absorbance of the samples was measured in a plate reader at a wavelength of 545 nm. The concentration of nitrite in the supernatants was determined by interpolating the absorbance values onto the standard curve.
# [2] = tested on: L. (V.) braziliensis intramacrophage amastigotes; experiment: Treatment of RAW 264.7 macrophages infected with L. (V.) braziliensis (intramacrophage amastigotes); assay type: cell-based, Leishmania (Viannia) braziliensis; details: RAW 264.7 infected with L. (V.) braziliensis, 72 h of treatment
# Protocol: RAW 264.7 macrophages (1 × 10^6 cells/mL) were seeded in 24-well plates containing sterile glass slides, and approximately 500 μL of supplemented DMEM medium was added. The plates were then incubated at 37 °C with 5% CO2 for 4 h to facilitate cell adhesion. Following the adhesion period, promastigotes (1 × 10^7) in the stationary growth phase were introduced into the wells for infection. The plates were then incubated for an additional 4 h to allow infection to take place. Afterward, the medium was carefully removed, and the wells were washed three times with PBS to eliminate any nonadherent cells. Fresh medium containing serial concentrations of the test substances, ranging from 0.78 to 25 μmol/L, was added to the wells. Additionally, a range of concentrations of glucantime (25 to 800 μmol/L) was included for comparison. The treatment was carried out for 72 h in an incubator at 37 °C with 5% CO2. At the end of the 72 h treatment period, the glass lamina was removed from each well and stained using rapid panoptic stain (Laborklin®, Curitiba, Paraná, Brazil). The stained samples were mounted on permanent slides using Entelan® (Sigma-Aldrich, St. Louis, MO, USA), and antileishmanial activity was assessed by measuring the infection rate and counting the number of amastigotes per macrophage. Quantification was performed using light microscopy at a magnification of 1000×, and a total of 300 macrophages per lamina were evaluated. As a negative control, half DMEM containing 0.2% DMSO was used.
# [3] = Leishmania braziliensis, RAW264.7, 72 h
"EC50 [2, 3] [µM]",EC50 [2] [µM],SMILES,EC50 [1] [µM],EC50 ([1]; Leishmania braziliensis) [µM],effect on heart rate (chronotropic) (right atrium),NO level (nitric oxide (NO)),"EC50 (right atrium; Cavia porcellus, isolated guinea pig right atrium, 3 to 100 µmol/L, read-out: EC50 reduction of heart rate activity) [µM]"
3.65,3.6 ± 0.2,"O=C(/N=C(/NCc1ccccc1)Nc1ccc([N+](=O)[O-])cc1)c1ccccc1 [LQOF-G1, (Z)-N-benzoyl-N-benzyl-N-(4-nitrophenyl)guanidine]",4.3 ± 0.2,4.27,slight decrease in heart rate,increased,–
4.21,4.2 ± 0.5,"O=C(/N=C(/NCc1ccccc1)Nc1ccc(Br)cc1)c1ccccc1 [LQOF-G2, (Z)-N-benzoyl-N-benzyl-N-(4-bromophenyl)guanidine]",–,5 ± 0.8,–,increased,69
8.25,8.2 ± 0.7,"O=C(/N=C(/NCc1ccccc1)Nc1ccc(I)cc1)c1ccccc1 [LQOF-G7, (Z)-N-benzoyl-N-benzyl-N-(4-iodophenyl)guanidine]",–,6.1,slight decrease in heart rate,–,–
–,–,"O=C(/N=C(/NCc1ccc(Cl)cc1Cl)Nc1ccc(Br)cc1)c1ccccc1 [LQOF-G32, (Z)-N-benzoyl-N-(2,4-di-chlorobenzyl)-N-(4-bromophenyl)guanidine]",–,–,slight decrease in heart rate,–,–

SMILES,"EC50 [2, 3] [µM]",EC50 [2] [µM],EC50 [1] [µM],EC50 ([1]; Leishmania braziliensis) [µM],effect on heart rate (chronotropic) (right atrium),NO level (nitric oxide (NO)),"EC50 (right atrium; Cavia porcellus, isolated guinea pig right atrium, 3 to 100 µmol/L, read-out: EC50 reduction of heart rate activity) [µM]"
"CC(C)(C)c1ccc(N/C(=N\C(=O)c2ccccc2)NCc2ccccc2)cc1 [LQOF-G6, (Z)-N-benzoyl-N-benzyl-N-(4-tert-butylphenyl)guanidine]",3.89,3.9 ± 0.1,–,4.3 ± 0.7,–,increased,–

# Reference: paper PMC10813298, “Evidence of Guanidines Potential against Leishmania (Viannia) braziliensis: Exploring In Vitro Effectiveness, Toxicities and of Innate Immunity Response Effects” (Biomolecules, 2023)
